Where two headings read alike, the source gives them in different places.
Assay: Suppression test of Experimental Example 1: masking and harmonizing effect in a cup, four expert panelists;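 for harmonizing: score 1 means in harmony 0 indefinite and −1 not in harmony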
Description: In the present invention, the selection of the above component (I), component (II) and component (III) was carried out as follows. That is, one of the pseudo body odor compositions mentioned above and a target fragrance component were mixed and left at room temperature for 30 minutes. Thereafter, evaluations of the masking and harmonizing effects to the acid odor were carried out by four expert panelists.
After 30 minutes, a hole of about 1 cm in diameter was formed in the aluminum foil and the investigations of masking effect and the harmonizing effect were carried out according to following evaluation criteria by four expert panelists.
3: Excellent in the masking.
2: Substantially excellent in the masking.
1: Slightly sensible of the body odor (sweat odor and armpit odor).
0: Sensible of the body odor (sweat odor and armpit odor) (insufficient in the masking)

[1] = 200 μl pseudo body odor composition of Example 4 and 10 μl perfume on filter papers in sealed about 500 ml cup, after 30 minutes, four expert panelists, scale 0-3
[2] = 200 μl pseudo body odor composition of Example 4 and 10 μl perfume on filter papers in sealed about 500 ml cup, after 30 minutes, four expert panelists, scale −1 to 1

Compound	Masking [1]	Harmonizing [2]	Harmonizing	Masking
CC(C)=CCCC(C)CC=O (stereo not shown) [Citronellal]	3	1		
CC(CC=O)CCCC(C)(C)O (stereo not shown) [Hydroxycitronellal]	1	0		
CC(C)c1ccc(C=O)cc1 [Cumin aldehyde]	1.5 points	−1		
C/C=C/C(=O)C1=C(C)C=CCC1(C)C [Damascenone]	2	1		
CC(=O)OC/C=C(\C)CCC=C(C)C [Geranyl acetate]	1	−1		
CCC(C)CCCC(C)(C)O (stereo not shown) [Tetrahydromyrcenol]	2	0		
C=CC(C)CCCC(C)(C)O (stereo not shown) [Dihydromyrcenol]	1.5 points	−1		
2-butyl-4,6-dimethyl-dihydro-pyran [Vigorose]	3	1		
C=CC(C)(O)CCC=C(C)C (stereo not shown) [Linalool]	1	0		
CC(=O)c1c(C)cc(C(C)(C)C)cc1C [4-tert-Butyl-2,6-dimethylacetophenone]	2	0		
CC(C)(C)C1CCC(O)CC1 (stereo not shown) [p-tert-Butylcyclohexanol]	1.5 points	0		
CC/C=C\CCOC(C)=O [cis-3-Hexenyl acetate]	3	1		
CC(C)[C@H]1CC[C@@H](CO)CC1 [Myol, cis-p-isopropylcyclohexyl methanol]	1	−1		
C=CCCC(=O)/C=C/C1C(C)=CCCC1(C)C (stereo not shown) [Allylionone]	2.5 points	0		
C/C=C/C(=O)C1C(C)C=CCC1(C)C (stereo not shown) [δ-Damascone]	1.5 points	0		
CC(=O)OC1CCC(C(C)(C)C)CC1 (stereo not shown) [p-tert-Butylcyclohexyl acetate]	1.5 points	−1		
C=CCOC(=O)CCCCC [Allyl caproate]	3	1		
CCCCCC1C(=O)CCC1CC(=O)OC (stereo not shown) [Methyl dihydrojasmonate]	2	1		
C=CC(C)(O)CCC=C(C)CC (mixture of isomers) [Ethyl linalool]	1.5 points	0		
CC(=O)OCCc1ccccc1 [Phenylethyl acetate]	2.5 points	1		
CC(C)=CCCC(C)C=O (stereo not shown) [2,6-Dimethyl-5-heptenal]	3	1		
O=C(OCc1ccccc1)c1ccccc1O [Benzyl salicylate]	1	−1		
CC1=CC(C)C(C=O)C(C)C1 (stereo not shown) [Isocyclocitral, trimethyl cyclohexene carbalehyde]	2.5 points	1		
O=C/C=C/c1ccccc1 [Cinnamic aldehyde]	2	0		
CC(=O)OC(C)c1ccccc1 (stereo not shown) [Styralyl acetate]	3	1		

Compound	Masking [1]	Harmonizing [2]	Harmonizing	Masking
CC/C=C\CC1=C(C)CCC1=O [cis-Jasmone]	1	−1		
CC(CO)c1ccccc1 (stereo not shown) [2-Phenyl propanol]	1	−1		
O=CCCC=C1CC2CC1C1CCCC21 (stereo not shown) [4-Tricyclodecylene butanal]	1.5 points	0		
c1ccc2[nH]ccc2c1 [Indole]	1.5 points	−1		
CCOC(=O)C12CCCC1C1CCC2C1 (stereo not shown) [Fluitate, ethyl tricyclo[5.2.1.0^2,6]decan-2-yl carboxylate]	1.5 points	−1		
CC(=O)OCc1ccccc1 [Benzyl acetate]	2.5 points	1		
CCOC(=O)C(C)CC (stereo not shown) [Ethyl-2-methyl butylate]	3	1		
Cc1cccc(CC(C)(C)CO)c1 [2,2-Dimethyl-3-(3-methylphenyl)propanol]	0.5 points	−1		
O=CCc1ccccc1 [Phenyl acetoaldehyde]	3	1		
COc1ccc(COC(C)=O)cc1 [Anisyl acetate]	1.5 points	0		
Methyl naphthyl ketone	1.5 points	−1		
Methylionone soap	2	1		
O=C(OCCc1ccccc1)c1ccccc1O [Phenylethyl salicylate]	1	−1		
CCCCCCCC1CCC(=O)O1 (stereo not shown) [γ-Undecalactone]			1	
CCCCCCCCC=CCC=O [Example 3-Dodecenal, 3-Dodecenal]	0.5 points	−1		
CCCCCCC1CCC(=O)O1 (stereo not shown) [γ-Decalactone]	2.5 points	1		
C/C=C\C(=O)C1C(C)=CCCC1(C)C (stereo not drawn) [α-Damascone]	2	0		
CCCCCC1=C(C)CCC1=O [Dihydrojasmone, 3-methyl-2-pentyl-2-cyclopentene-1-one]	1	0		
CC(C)CC1CC(C)(O)CCO1 (stereo not shown) [Dihydroroseoxide, 4-methyl-2-(2-methylpropyl)tetrahydro-2H-4-pyranol]	1.5 points	0		
CC(=O)C(C)=C(C)C(C)C(C)(C)C (stereo not shown) [Koavone, ethylene tetramethyl heptanone]			1	2.5 points
CCCCCCCCCC(C)C=O (stereo not shown) [2-Methyl undecanal]		0		
O=C(Cc1ccccc1)OCCc1ccccc1 [Phenylethyl phenyl acetate]	2	0		
CCc1ccc(CC(C)(C)C=O)cc1 [Floralozone, p-ethyl-α,α-dimethyl phenyl propyl aldehyde]	1.5 points	0		
CC/C=C\CCOC(=O)c1ccccc1O [cis-3-Hexenyl salicylate]	2	1		
COC(=O)Cc1ccccc1 [Methyl phenyl acetate]	2.5 points	1		

Compound	Masking [1]	Harmonizing [2]	Harmonizing	Masking
CC1(C)CCCC2(C)C1CCC1(C)OCCC12 (stereo not drawn) [Ambroxan, Decahydro-3α, 6,6,9α-tetramethyldodecanhydronaphto[2,1-b]furan]	2	1		
CCCCCCC(C=O)=Cc1ccccc1 [α-Hexyl cinnamic aldehyde]		−1		
CO[C@]1(C)CC[C@@]23C[C@@H]1C(C)(C)[C@@H]2CC[C@H]3C [Cedryl methyl ether]	1	−1		
CC(=O)OCCC(C)CCC=C(C)C (stereo not shown) [Citronellyl acetate]	1.5 points	0		
CCCCCCOC(=O)c1ccccc1O [Hexyl salicylate]	1	−1		
C=CCCC(=O)C1=CCCC(C)(C)C1 [α-Dynascone, 1-(5,5-dimethyl-cyclohexene-1-yl)-4-pentene-1-one]	3	1		
COC(Cc1ccccc1)OC [Phenylactoaldehyde dimethylacetal]	2	1		
CCCCCCCCCCC=CC#N [Tridecene-2-nitrile]	1.5 points	0		
CCCOC(C)OCCc1ccccc1 (stereo not shown) [Acetoaldehydephenylethylpropyl acetal]	2.5 points	1		
COC(=O)c1ccccc1N [Methyl anthranilate]	2.5 points	1		
CCCCCC1COCCC1OC(C)=O (stereo not shown) [Jasmal, 3-pentyl tetrahydropyranyl acetate]	1	−1		
CC(C)=CCCC(C)CC#N (stereo not shown) [Citronellyl nitrile]	3	1		
CC(C=O)Cc1ccc(C(C)(C)C)cc1 (stereo not drawn) [Lilial, p-tert-butyl-α-methyl hydrocinnamic aldehyde]		0		
CC(C)=C[C@@H]1C[C@H](C)CCO1 [L-Rose oxide]	3	1		
COC(=O)c1ccccc1N=CCC(C)CCCC(C)(C)O (stereo not shown) [Aurantiol, Hydoroxycitronellylidene methyl anthranilate]	2	1		
CC(C)Cc1ccc2ncccc2c1 [Isobutyl quinoline]	2	1		
CCC(O)COC1CCCCC1C(C)(C)C (stereo not shown) [Amber core, 1-(2-tert-butylcyclohexyloxy)butane-2-ol]	0.5 points	−1		
CC(=O)C1=C(C)[C@@H]2C[C@@]3(C1)[C@H](C)CC[C@H]3C2(C)C [Woodyflor, acetylcedrene]	1.5 points	−1		
CC12CCC(CC1=O)C2(C)C (stereo not shown) [Camphor]	3	1		
CC(C)(O)CCCC1=CCC(C=O)CC1 (stereo not shown) [Kovanol, 4(3)-(4-hydroxy-4-methylpentyl)-3-cyclohexene-1-carboxy aldehyde]	1	0		
C=CCc1ccc(O)c(OC)c1 [Eugenol]	1.5 points	0		
CC(C)=CCCC(C)CCCC(C)C=O (stereo not shown) [2,6,10-Trimethyl-9-undecenal]	1	−1		
CC(C)=CCCC(C)=CC=O [Citral]	3	1		

— patent US20060159639A1, “Pseudo body odor composition and perfume composition for inhibiting body odor” (priority 2003, published 2006)
